# From US5486516A, “Furopyrimidine derivatives” (DowElanco, priority 1993, dated 1996)
# System: Pseudoperonospora cubensis (downy mildew)
# Experiment: Plant pathology screen (Test 1), downy mildew on squash
# Conditions: foliar, read-out: DOWN MDEW control rating
row,SMILES,pest or weed control at 400 µg/mL
1,"Cc1cc2c(Oc3ccc(F)cc3)ncnc2o1 [Example 5, 6-methyl-4-(4-fluorophenoxy)furo[2,3-d]pyrimidine]",0 to 19%
2,"Cc1oc2ncnc(NCCC3CCC4CCCCC4C3)c2c1C (centres unmarked) [Example 18, N-[2-(decahydro-2-naphthyl)ethyl]-5,6-dimethylfuro[2,3-d]pyrimidin-4-amine]",0 to 19%
3,"Cc1oc2ncnc(OCCN3C[C@@H](C)O[C@@H](C)C3)c2c1C [Example 57, Cis-5,6-dimethyl-4-[2-(2,6-dimethyl-4-morpholinyl)ethoxy]furo[2,3-d]pyrimidine]",20 to 89%

# System: melon aphids (Aphis gossvpii Glover)
# Experiment: Mite/insect screen, melon aphids
# Format: in vivo
# Conditions: Aphis; rate 200 ppm, sprayed leaves; read-out: MA results (percent mortality)
# How it was run: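 Percent mortality of melon aphids was assessed after standard exposure periods. Infested squash cotyledons had been sprayed on both leaf surfaces until runoff at 10 psi with water-diluted test solutions. Compounds were formulated in acetone/alcohol (50:50) containing emulsifiers.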
row,SMILES,mortality at 200 ppm
1,"Cc1cc2c(Oc3ccc(F)cc3)ncnc2o1 [Example 5, 6-methyl-4-(4-fluorophenoxy)furo[2,3-d]pyrimidine]",0%
2,"Cc1oc2ncnc(NCCC3CCC4CCCCC4C3)c2c1C (centres unmarked) [Example 18, N-[2-(decahydro-2-naphthyl)ethyl]-5,6-dimethylfuro[2,3-d]pyrimidin-4-amine]",0%
3,"Cc1oc2ncnc(OCCN3C[C@@H](C)O[C@@H](C)C3)c2c1C [Example 57, Cis-5,6-dimethyl-4-[2-(2,6-dimethyl-4-morpholinyl)ethoxy]furo[2,3-d]pyrimidine]",0%

# Same assay, conditions: Aphis; rate 400 ppm, sprayed leaves; read-out: MA results (percent mortality)
row,SMILES,mortality at 400 ppm
1,"Cc1cc2c(Oc3ccc(F)cc3)ncnc2o1 [Example 5, 6-methyl-4-(4-fluorophenoxy)furo[2,3-d]pyrimidine]",0%
2,"Cc1oc2ncnc(NCCC3CCC4CCCCC4C3)c2c1C (centres unmarked) [Example 18, N-[2-(decahydro-2-naphthyl)ethyl]-5,6-dimethylfuro[2,3-d]pyrimidin-4-amine]",0%
3,"Cc1oc2ncnc(OCCN3C[C@@H](C)O[C@@H](C)C3)c2c1C [Example 57, Cis-5,6-dimethyl-4-[2-(2,6-dimethyl-4-morpholinyl)ethoxy]furo[2,3-d]pyrimidine]",0%

# Same assay, conditions: rate 200 ppm, sprayed leaves
row,SMILES,MA results (percent mortality)
1,"Cc1oc2ncnc(OCCN3C[C@@H](C)O[C@@H](C)C3)c2c1C [Example 57, Cis-5,6-dimethyl-4-[2-(2,6-dimethyl-4-morpholinyl)ethoxy]furo[2,3-d]pyrimidine]",0%

# Same assay, conditions: rate 400 ppm, sprayed leaves
row,SMILES,MA results (percent mortality)
1,"Cc1oc2ncnc(OCCN3C[C@@H](C)O[C@@H](C)C3)c2c1C [Example 57, Cis-5,6-dimethyl-4-[2-(2,6-dimethyl-4-morpholinyl)ethoxy]furo[2,3-d]pyrimidine]",0%

# System: Twospotted spider mites (Tetranychus urticae Koch)
# Experiment: Mite/insect screen, twospotted spider mites
# Format: in vivo
# Conditions: Tetranychus urticae, rate 200 ppm, sprayed leaves; read-out: SM results (percent mortality)
# How it was run: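 Percent mortality, along with phytotoxicity, was read after standard exposure periods. Beforehand, mites established on both surfaces of squash cotyledons received a runoff spray (10 psi) of water-diluted compound formulated in acetone/alcohol with sulfonate/nonionic emulsifiers.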
row,SMILES,mortality at 200 ppm
1,"Cc1cc2c(Oc3ccc(F)cc3)ncnc2o1 [Example 5, 6-methyl-4-(4-fluorophenoxy)furo[2,3-d]pyrimidine]",0%
2,"Cc1oc2ncnc(NCCC3CCC4CCCCC4C3)c2c1C (centres unmarked) [Example 18, N-[2-(decahydro-2-naphthyl)ethyl]-5,6-dimethylfuro[2,3-d]pyrimidin-4-amine]",0%
3,"Cc1oc2ncnc(OCCN3C[C@@H](C)O[C@@H](C)C3)c2c1C [Example 57, Cis-5,6-dimethyl-4-[2-(2,6-dimethyl-4-morpholinyl)ethoxy]furo[2,3-d]pyrimidine]",0%

# Same assay, conditions: Tetranychus urticae, rate 400 ppm, sprayed leaves; read-out: SM results (percent mortality)
row,SMILES,mortality at 400 ppm
1,"Cc1cc2c(Oc3ccc(F)cc3)ncnc2o1 [Example 5, 6-methyl-4-(4-fluorophenoxy)furo[2,3-d]pyrimidine]",0%
2,"Cc1oc2ncnc(NCCC3CCC4CCCCC4C3)c2c1C (centres unmarked) [Example 18, N-[2-(decahydro-2-naphthyl)ethyl]-5,6-dimethylfuro[2,3-d]pyrimidin-4-amine]",0%
3,"Cc1oc2ncnc(OCCN3C[C@@H](C)O[C@@H](C)C3)c2c1C [Example 57, Cis-5,6-dimethyl-4-[2-(2,6-dimethyl-4-morpholinyl)ethoxy]furo[2,3-d]pyrimidine]",0%

# Same assay, conditions: rate 200 ppm, sprayed leaves
row,SMILES,SM results (percent mortality)
1,"Cc1oc2ncnc(OCCN3C[C@@H](C)O[C@@H](C)C3)c2c1C [Example 57, Cis-5,6-dimethyl-4-[2-(2,6-dimethyl-4-morpholinyl)ethoxy]furo[2,3-d]pyrimidine]",0%

# Same assay, conditions: rate 400 ppm, sprayed leaves
row,SMILES,SM results (percent mortality)
1,"Cc1oc2ncnc(OCCN3C[C@@H](C)O[C@@H](C)C3)c2c1C [Example 57, Cis-5,6-dimethyl-4-[2-(2,6-dimethyl-4-morpholinyl)ethoxy]furo[2,3-d]pyrimidine]",0%

# System: Southern corn rootworm (Diabrotica undecimpuctata howardi Barber)
# Experiment: Mite/insect screen, corn rootworm
# Format: in vivo
# Conditions: CRW rate 12.00 ppm, soil
# How it was run: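 Five 2-3 instar larvae per cup were placed on sandy soil (15 g, with presoaked corn seed) treated 6–12 h earlier with 1 mL test solution, an emulsified acetone/alcohol formulation diluted in water. Cups kept at 23° C; mortality and phytotoxicity assessed as percent after standard exposures.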
row,SMILES,CRW results (percent mortality)
1,"Cc1oc2ncnc(OCCN3C[C@@H](C)O[C@@H](C)C3)c2c1C [Example 57, Cis-5,6-dimethyl-4-[2-(2,6-dimethyl-4-morpholinyl)ethoxy]furo[2,3-d]pyrimidine]",0%

# Same assay, conditions: CRW rate 24.00 ppm, soil
row,SMILES,CRW results (percent mortality)
1,"Cc1oc2ncnc(OCCN3C[C@@H](C)O[C@@H](C)C3)c2c1C [Example 57, Cis-5,6-dimethyl-4-[2-(2,6-dimethyl-4-morpholinyl)ethoxy]furo[2,3-d]pyrimidine]",0%

# Same assay, conditions: Diabrotica; CRW rate 12.00 ppm, soil; read-out: CRW results (percent mortality)
row,SMILES,mortality at 12 ppm
1,"Cc1cc2c(Oc3ccc(F)cc3)ncnc2o1 [Example 5, 6-methyl-4-(4-fluorophenoxy)furo[2,3-d]pyrimidine]",0%
2,"Cc1oc2ncnc(NCCC3CCC4CCCCC4C3)c2c1C (centres unmarked) [Example 18, N-[2-(decahydro-2-naphthyl)ethyl]-5,6-dimethylfuro[2,3-d]pyrimidin-4-amine]",0%
3,"Cc1oc2ncnc(OCCN3C[C@@H](C)O[C@@H](C)C3)c2c1C [Example 57, Cis-5,6-dimethyl-4-[2-(2,6-dimethyl-4-morpholinyl)ethoxy]furo[2,3-d]pyrimidine]",0%

# Same assay, conditions: Diabrotica; CRW rate 24.00 ppm, soil; read-out: CRW results (percent mortality)
row,SMILES,mortality at 24 ppm
1,"Cc1cc2c(Oc3ccc(F)cc3)ncnc2o1 [Example 5, 6-methyl-4-(4-fluorophenoxy)furo[2,3-d]pyrimidine]",0%
2,"Cc1oc2ncnc(NCCC3CCC4CCCCC4C3)c2c1C (centres unmarked) [Example 18, N-[2-(decahydro-2-naphthyl)ethyl]-5,6-dimethylfuro[2,3-d]pyrimidin-4-amine]",0%
3,"Cc1oc2ncnc(OCCN3C[C@@H](C)O[C@@H](C)C3)c2c1C [Example 57, Cis-5,6-dimethyl-4-[2-(2,6-dimethyl-4-morpholinyl)ethoxy]furo[2,3-d]pyrimidine]",0%

# System: southern armyworm (Spodopetra eridania Cramer)
# Experiment: Mite/insect screen, Southern armyworm
# Format: in vivo
# Conditions: Spodoptera eridania; rate 200 ppm, sprayed leaves; read-out: SAW results (percent mortality)
# How it was run: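 Southern armyworm larvae placed in Petri dishes with two excised squash leaves that had been sprayed to runoff (10 psi) with emulsified compound and air-dried for 1 h. Mortality in percent recorded after a standard exposure period; formulation acetone/alcohol plus Toximul R and S, water-diluted.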
row,SMILES,mortality at 200 ppm
1,"Cc1cc2c(Oc3ccc(F)cc3)ncnc2o1 [Example 5, 6-methyl-4-(4-fluorophenoxy)furo[2,3-d]pyrimidine]",0%
2,"Cc1oc2ncnc(NCCC3CCC4CCCCC4C3)c2c1C (centres unmarked) [Example 18, N-[2-(decahydro-2-naphthyl)ethyl]-5,6-dimethylfuro[2,3-d]pyrimidin-4-amine]",0%
3,"Cc1oc2ncnc(OCCN3C[C@@H](C)O[C@@H](C)C3)c2c1C [Example 57, Cis-5,6-dimethyl-4-[2-(2,6-dimethyl-4-morpholinyl)ethoxy]furo[2,3-d]pyrimidine]",0%

# Same assay, conditions: Spodoptera eridania; rate 400 ppm, sprayed leaves; read-out: SAW results (percent mortality)
row,SMILES,mortality at 400 ppm
1,"Cc1cc2c(Oc3ccc(F)cc3)ncnc2o1 [Example 5, 6-methyl-4-(4-fluorophenoxy)furo[2,3-d]pyrimidine]",0%
2,"Cc1oc2ncnc(NCCC3CCC4CCCCC4C3)c2c1C (centres unmarked) [Example 18, N-[2-(decahydro-2-naphthyl)ethyl]-5,6-dimethylfuro[2,3-d]pyrimidin-4-amine]",0%
3,"Cc1oc2ncnc(OCCN3C[C@@H](C)O[C@@H](C)C3)c2c1C [Example 57, Cis-5,6-dimethyl-4-[2-(2,6-dimethyl-4-morpholinyl)ethoxy]furo[2,3-d]pyrimidine]",0%

# Same assay, conditions: rate 200 ppm, sprayed leaves
row,SMILES,SAW results (percent mortality)
1,"Cc1oc2ncnc(OCCN3C[C@@H](C)O[C@@H](C)C3)c2c1C [Example 57, Cis-5,6-dimethyl-4-[2-(2,6-dimethyl-4-morpholinyl)ethoxy]furo[2,3-d]pyrimidine]",0%

# Same assay, conditions: rate 400 ppm, sprayed leaves
row,SMILES,SAW results (percent mortality)
1,"Cc1oc2ncnc(OCCN3C[C@@H](C)O[C@@H](C)C3)c2c1C [Example 57, Cis-5,6-dimethyl-4-[2-(2,6-dimethyl-4-morpholinyl)ethoxy]furo[2,3-d]pyrimidine]",0%

# System: Erysiphe graminis tritici (powdery mildew)
# Experiment: Plant pathology screen (Test 1), powdery mildew on wheat
# Conditions: Blumeria graminis, in Triticum aestivum, foliar, read-out: POWD MDEW control rating
row,SMILES,pest or weed control at 400 µg/mL
1,"Cc1cc2c(Oc3ccc(F)cc3)ncnc2o1 [Example 5, 6-methyl-4-(4-fluorophenoxy)furo[2,3-d]pyrimidine]",20 to 89%
2,"Cc1oc2ncnc(NCCC3CCC4CCCCC4C3)c2c1C (centres unmarked) [Example 18, N-[2-(decahydro-2-naphthyl)ethyl]-5,6-dimethylfuro[2,3-d]pyrimidin-4-amine]",0 to 19%
3,"Cc1oc2ncnc(OCCN3C[C@@H](C)O[C@@H](C)C3)c2c1C [Example 57, Cis-5,6-dimethyl-4-[2-(2,6-dimethyl-4-morpholinyl)ethoxy]furo[2,3-d]pyrimidine]",0 to 19%

# System: Botrytis cinerea (gray mold)
# Experiment: Plant pathology screen (Test 1), gray mold on grape berries
# Conditions: read-out: GRAY MOLD control rating
row,SMILES,pest or weed control at 400 µg/mL
1,"Cc1cc2c(Oc3ccc(F)cc3)ncnc2o1 [Example 5, 6-methyl-4-(4-fluorophenoxy)furo[2,3-d]pyrimidine]",0 to 19%
2,"Cc1oc2ncnc(NCCC3CCC4CCCCC4C3)c2c1C (centres unmarked) [Example 18, N-[2-(decahydro-2-naphthyl)ethyl]-5,6-dimethylfuro[2,3-d]pyrimidin-4-amine]",20 to 89%
3,"Cc1oc2ncnc(OCCN3C[C@@H](C)O[C@@H](C)C3)c2c1C [Example 57, Cis-5,6-dimethyl-4-[2-(2,6-dimethyl-4-morpholinyl)ethoxy]furo[2,3-d]pyrimidine]",0 to 19%

# System: Pyricularia oryzae (rice blast)
# Experiment: whole plant or invertebrate
# Format: in vivo
# Conditions: foliar, read-out: RICE BLAST control rating
row,SMILES,pest or weed control at 400 µg/mL
1,"Cc1cc2c(Oc3ccc(F)cc3)ncnc2o1 [Example 5, 6-methyl-4-(4-fluorophenoxy)furo[2,3-d]pyrimidine]",0 to 19%
2,"Cc1oc2ncnc(NCCC3CCC4CCCCC4C3)c2c1C (centres unmarked) [Example 18, N-[2-(decahydro-2-naphthyl)ethyl]-5,6-dimethylfuro[2,3-d]pyrimidin-4-amine]",0 to 19%
3,"Cc1oc2ncnc(OCCN3C[C@@H](C)O[C@@H](C)C3)c2c1C [Example 57, Cis-5,6-dimethyl-4-[2-(2,6-dimethyl-4-morpholinyl)ethoxy]furo[2,3-d]pyrimidine]",0 to 19%

# System: Puccinia recondita tritici (leaf rust)
# Experiment: Plant pathology screen (Test 1), leaf rust on wheat
# Conditions: in Triticum aestivum, foliar, read-out: LEAF RUST control rating
row,SMILES,pest or weed control at 400 µg/mL
1,"Cc1cc2c(Oc3ccc(F)cc3)ncnc2o1 [Example 5, 6-methyl-4-(4-fluorophenoxy)furo[2,3-d]pyrimidine]",90 to 100%
2,"Cc1oc2ncnc(NCCC3CCC4CCCCC4C3)c2c1C (centres unmarked) [Example 18, N-[2-(decahydro-2-naphthyl)ethyl]-5,6-dimethylfuro[2,3-d]pyrimidin-4-amine]",0 to 19%
3,"Cc1oc2ncnc(OCCN3C[C@@H](C)O[C@@H](C)C3)c2c1C [Example 57, Cis-5,6-dimethyl-4-[2-(2,6-dimethyl-4-morpholinyl)ethoxy]furo[2,3-d]pyrimidine]",0 to 19%
